From ChEMBL document CHEMBL1132912, “Cytotoxic alpha-bromoacrylic derivatives of distamycin analogues modified at the amidino moiety” (Bioorg Med Chem Lett, 2000)

Assays:
Assay type in all cases: functional
Mus musculus [1] = experiment: In vivo antileukemic activity was determined in mice infected with L1210 leukemia cell after intravenous of treated versus untreated mice 10)
Mus musculus [2] = experiment: In vivo antileukemic activity was determined on L1210 leukemia cell in mice (O.D.=optimal (non-toxic) dose <LD10)
Mus musculus [3] = experiment: In vivo antileukemic activity was determined in mice infected with L1210 leukemia cell after intravenous administration (T/C=median survival time of treated versus untreated mice 10)

Row | Structure (SMILES) | T/C (Mus musculus [1]) [%] | OD (Mus musculus [2]) [mg/kg] | T/C (Mus musculus [3]) [%]
1 | C=C(Br)C(=O)Nc1cc(C(=O)Nc2cc(C(=O)Nc3cc(C(=O)Nc4cc(C(=O)NCCN=C(N)N)n(C)c4)n(C)c3)n(C)c2)n(C)c1.Cl | 196 | 1.56 | 
2 | C=C(Br)C(=O)Nc1cc(C(=O)Nc2cc(C(=O)Nc3cc(C(=O)Nc4cc(C(=O)NCCC(=N)NC#N)n(C)c4)n(C)c3)n(C)c2)n(C)c1.Cl | 157 | 3.13 | 
3 | C=C(Br)C(=O)Nc1cc(C(=O)Nc2cc(C(=O)Nc3cc(C(=O)Nc4cc(C(=O)NCCC#N)n(C)c4)n(C)c3)n(C)c2)n(C)c1.Cl |  | 12.5 | 157
4 | C=C(Br)C(=O)Nc1cc(C(=O)Nc2cc(C(=O)Nc3cc(C(=O)Nc4cc(C(=O)NCC/C(=N/C)NC)n(C)c4)n(C)c3)n(C)c2)n(C)c1.Cl | 258 | 1.56 | 
5 | C=C(Br)C(=O)Nc1cc(C(=O)Nc2cc(C(=O)Nc3cc(C(=O)Nc4cc(C(=O)NCCC(=N)NC)n(C)c4)n(C)c3)n(C)c2)n(C)c1.Cl | 150 | 3.13 | 
6 | C=C(Br)C(=O)Nc1cc(C(=O)Nc2cc(C(=O)Nc3cc(C(=O)Nc4cc(C(=O)NCCC(=N)NO)n(C)c4)n(C)c3)n(C)c2)n(C)c1.Cl | 186 | 6.25 | 
7 | C=C(Br)C(=O)Nc1cc(C(=O)Nc2cc(C(=O)Nc3cc(C(=O)Nc4cc(C(=O)NCCC(N)=O)n(C)c4)n(C)c3)n(C)c2)n(C)c1.Cl | 169 | 6.25 | 
